Measured values as given in patent US7390903B2, “Thieno-pyridine derivatives as allosteric enhancers of the GABAB receptors” (Hoffmann-La Roche Inc., priority 2004, dated 2008).

Assays:
human GABABR1aR2a = target: T1, human GABABR1aR2a (Homo sapiens, UniProt O75899+Q9UBS5); assay: Intracellular Ca2+ mobilization assay in CHO-GABABR1aR2a-Gα16 cell (FLIPR); format: cell-based; conditions: for GABA shift Log [EC50(GABA + 10 μM cp)/EC50(GABA alone)]: GABA 0.0003-30 μM in absence and presence of 10 μM enhancer; for Emax: enhancer 0.001-30 μM in the presence of 10 nM GABA (EC10), enhancer applied 15 min before GABA, read-out: Emax (%) at 10 nM GABA alone = 0% 10 μM GABA alone = 100%; for EC50: enhancer concentration-response (0.001-30 μM) in the presence of 10 nM GABA
T1 construct: expressed in transfected cells
Description: Intracellular Ca^2+ Mobilization Assay
The Chinese Hamster Ovary (CHO) cells stably expressing human GABABR1aR2a and Gα16 were seeded at 5×10^4 cells/well in the poly-D-lysine treated, 96-well, black/clear-bottomed plates (BD Biosciences, Palo Alto, Calif.). 24 h later, the cells were loaded for 90 min at 37° C. with 4 μM Flou-4 acetoxymethyl ester (Catalog No. F-14202, Molecular Probes, Eugene, Oreg.) in loading buffer (1×HBSS, 20 mM HEPES, 2.5 mM Probenecid). Hanks' Balanced Salt Solution (HBSS) (10×) (catalog No. 14065-049) and HEPES (1M) (catalog No. 15630-056) were purchased from Invitrogen, Carlsbad, Calif. Probenecid (250 mM) (catalog No. P8761) was from Sigma, Buchs, Switzerland. The cells were washed five times with loading buffer to remove excess dye and intracellular calcium mobilization, [Ca^2+]i were measured using a Fluorometric Imaging Plate Reader (FLIPR, Molecular Devices, Menlo Park, Calif.) as described previously (Porter et al., Br. J. Pharmacol., 128, 13-20, 1999). The enhancers were applied 15 min before the application of the GABA. For GABA shift assay, concentration-response curves of GABA (0.0003-30 μM) were determined in the absence and presence of 10 μM enhancer. The GABA-shift is defined as Log [EC50 (GABA+10 μM enhancer)/EC50 (GABA alone)]. The % maximum enhancing effect (% Emax) and potency (EC50 value) of each enhancer was determined from concentration-response curve of the enhancer (0.001-30 μM) in the presence of 10 nM GABA (EC10). Responses were measured as peak increase in fluorescence minus basal, normalized to the maximal stimulatory effect induced by 10 μM GABA alone (considered 100%) and 10 nM GABA alone (considered 0%). The data were fitted with the equation Y=100+(Max−100)/(1+(EC50/[drug])^n) where Max is the maximum effect, EC50 the concentration eliciting a half-maximum effect and n the Hill slope.

[1] = passive avoidance behavioral test in mice and rats; cited from earlier work
[2] = PO, cited from earlier work
[3] = cited from earlier work
[4] = rats; cited from earlier work
GABABR1R2 = GABABR1R2 (Homo sapiens, UniProt O75899+Q9UBS5); conditions: cited from earlier work; for effect on their own at GABAB receptors: absence of GABA; for effect on potency and maximal efficacy of GABA: in concert with endogenous GABA, GABABR1R2
[5] = rat; cited from earlier work
[6] = small group of veterans with chronic, combat-related PTSD; cited from earlier work
[7] = panic disorder patients; Hamilton, Zung anxiety scales, Katz-R nervousness subscale; cited from earlier work
[8] = preclinical; cited from earlier work

Sequence of GABABR1R2 (Q9UBS5 20-961): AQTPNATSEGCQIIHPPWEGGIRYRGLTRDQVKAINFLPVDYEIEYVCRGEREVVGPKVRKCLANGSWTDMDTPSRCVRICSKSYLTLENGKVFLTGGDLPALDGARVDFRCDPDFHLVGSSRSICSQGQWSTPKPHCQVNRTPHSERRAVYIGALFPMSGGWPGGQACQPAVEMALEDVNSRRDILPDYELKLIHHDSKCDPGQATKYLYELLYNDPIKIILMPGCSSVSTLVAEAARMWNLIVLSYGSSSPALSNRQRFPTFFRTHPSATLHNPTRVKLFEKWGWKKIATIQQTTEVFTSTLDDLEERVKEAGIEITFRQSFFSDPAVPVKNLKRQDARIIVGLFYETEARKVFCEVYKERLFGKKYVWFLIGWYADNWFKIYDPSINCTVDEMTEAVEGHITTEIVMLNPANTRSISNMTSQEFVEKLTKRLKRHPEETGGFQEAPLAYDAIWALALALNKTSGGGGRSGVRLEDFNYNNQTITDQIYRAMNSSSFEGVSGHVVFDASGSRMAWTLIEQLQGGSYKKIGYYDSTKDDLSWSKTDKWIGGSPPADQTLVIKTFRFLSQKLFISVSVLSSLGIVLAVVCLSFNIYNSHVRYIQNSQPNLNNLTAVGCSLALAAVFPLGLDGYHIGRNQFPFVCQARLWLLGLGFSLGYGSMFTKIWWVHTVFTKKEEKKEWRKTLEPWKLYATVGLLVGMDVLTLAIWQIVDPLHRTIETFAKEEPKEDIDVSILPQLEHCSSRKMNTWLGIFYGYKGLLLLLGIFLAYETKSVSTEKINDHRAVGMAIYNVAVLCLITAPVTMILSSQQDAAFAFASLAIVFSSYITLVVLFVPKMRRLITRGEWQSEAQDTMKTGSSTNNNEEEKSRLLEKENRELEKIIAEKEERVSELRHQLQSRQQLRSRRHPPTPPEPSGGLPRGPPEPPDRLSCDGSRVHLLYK
Sequence of GABABR1R2 (O75899 42-941): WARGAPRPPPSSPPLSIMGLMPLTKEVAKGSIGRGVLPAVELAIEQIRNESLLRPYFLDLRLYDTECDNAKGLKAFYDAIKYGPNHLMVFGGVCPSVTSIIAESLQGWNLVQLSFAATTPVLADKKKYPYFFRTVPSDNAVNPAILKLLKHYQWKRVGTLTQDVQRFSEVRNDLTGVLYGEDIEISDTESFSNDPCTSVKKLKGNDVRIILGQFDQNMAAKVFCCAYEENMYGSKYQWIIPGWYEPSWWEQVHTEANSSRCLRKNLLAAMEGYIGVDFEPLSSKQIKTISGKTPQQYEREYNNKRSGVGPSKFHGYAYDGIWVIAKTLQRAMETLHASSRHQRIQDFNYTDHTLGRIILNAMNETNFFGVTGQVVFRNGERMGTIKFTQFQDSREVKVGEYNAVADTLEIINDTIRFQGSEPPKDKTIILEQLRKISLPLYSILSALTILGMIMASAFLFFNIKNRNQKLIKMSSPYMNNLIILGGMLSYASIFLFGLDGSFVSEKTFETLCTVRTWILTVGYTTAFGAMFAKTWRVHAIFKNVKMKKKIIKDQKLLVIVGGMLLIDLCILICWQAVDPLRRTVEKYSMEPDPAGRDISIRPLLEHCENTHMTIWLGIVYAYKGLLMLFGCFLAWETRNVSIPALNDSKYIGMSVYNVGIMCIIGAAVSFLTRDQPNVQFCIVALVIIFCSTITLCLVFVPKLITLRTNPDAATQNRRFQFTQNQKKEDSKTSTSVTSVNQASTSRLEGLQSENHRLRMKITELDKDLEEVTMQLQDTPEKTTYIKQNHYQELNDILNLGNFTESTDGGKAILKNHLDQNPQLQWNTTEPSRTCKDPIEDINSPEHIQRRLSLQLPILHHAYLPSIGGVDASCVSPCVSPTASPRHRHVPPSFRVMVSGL
T1 sequence (Q9UBS5 15-961 limits assumed): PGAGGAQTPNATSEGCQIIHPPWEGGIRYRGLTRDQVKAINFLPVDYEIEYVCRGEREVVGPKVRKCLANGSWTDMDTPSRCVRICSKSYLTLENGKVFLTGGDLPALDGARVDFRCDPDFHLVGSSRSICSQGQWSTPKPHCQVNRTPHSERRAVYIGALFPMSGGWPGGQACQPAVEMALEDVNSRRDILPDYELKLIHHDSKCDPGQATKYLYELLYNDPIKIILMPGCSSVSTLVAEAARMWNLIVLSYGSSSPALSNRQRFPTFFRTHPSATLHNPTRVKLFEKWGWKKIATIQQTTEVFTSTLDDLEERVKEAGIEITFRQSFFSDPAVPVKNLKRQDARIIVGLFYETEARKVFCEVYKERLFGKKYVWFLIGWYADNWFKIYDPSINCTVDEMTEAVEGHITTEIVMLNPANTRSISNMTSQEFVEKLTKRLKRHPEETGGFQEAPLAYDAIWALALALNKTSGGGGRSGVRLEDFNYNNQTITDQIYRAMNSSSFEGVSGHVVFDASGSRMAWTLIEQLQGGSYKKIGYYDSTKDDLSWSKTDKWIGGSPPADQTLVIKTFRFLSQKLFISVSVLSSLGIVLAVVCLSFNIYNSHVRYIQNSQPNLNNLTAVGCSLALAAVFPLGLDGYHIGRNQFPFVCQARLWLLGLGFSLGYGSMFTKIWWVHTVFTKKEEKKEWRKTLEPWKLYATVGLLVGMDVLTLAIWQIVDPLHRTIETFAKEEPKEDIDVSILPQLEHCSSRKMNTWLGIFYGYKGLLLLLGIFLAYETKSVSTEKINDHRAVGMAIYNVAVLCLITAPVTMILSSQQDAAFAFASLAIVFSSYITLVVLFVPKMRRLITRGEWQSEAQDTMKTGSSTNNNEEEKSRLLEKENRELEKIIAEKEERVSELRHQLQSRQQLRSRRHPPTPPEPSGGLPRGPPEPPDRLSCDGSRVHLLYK
T1 sequence (O75899 42-941): as the sequence (O75899 42-941) above

| GABA shift Log [EC50(GABA + 10 μM cp)/EC50(GABA alone)] (human GABABR1aR2a) | Emax (human GABABR1aR2a) [%] | EC50 (human GABABR1aR2a) [µM] | Compound | further results |
| --- | --- | --- | --- | --- |
| −0.3 | 47 | 14.7 | Cc1nc2sc3c(c2c(-c2ccc(Cl)c(Cl)c2)c1C(=O)C(F)(F)F)CCC3 [Example 1, 1-[4-(3,4-Dichloro-phenyl)-2-methyl-6,7-dihydro-5H-cyclopenta[4,5]thieno[2,3-b]pyridin-3-yl]-2,2,2-trifluoro-ethanone] | – |
| −0.91 | 56 | 1.2 | COC(=O)c1ccc(-c2c(C(=O)C3CC3)c(C)nc3sc4c(c23)CCCCC4)cc1 [Example 35, 4-(3-Cyclopropanecarbonyl-2-methyl-6,7,8,9-tetrahydro-H-10-thia-1-aza-benzo [a]azulen-4-yl)-benzoic acid methyl ester] | – |
| – | – | – | CSc1nc(NC2CCCC2)c([N+](=O)[O-])c(NC2CCCC2)n1 [GS39783, N,N_-dicyclopentyl-2-methylsulfanyl-5-nitro-pyrimidine-4,6-diamine] | effect on cognition performance [1]: did not have any effect; effect on spontaneous locomotor activity, rotarod, body temperature and traction test ([2]; 0.1-200 mg/kg): had no effect; tolerance after chronic treatment ([3]; 21 days, 10 mg/kg, P.O., once daily, light-dark box and elevated zero maze): No tolerance; anxiolytic-like effects ([3]; elevated plus maze (rat), elevated zero maze (mice and rats), stress-induced hyperthermia (mice)): exhibited anxiolytic-like effects; cocaine self-administration [4]: effective at deceasing cocaine self-administration |
| – | – | – | CC(C)(C=O)Cc1cc(C(C)(C)C)c(O)c(C(C)(C)C)c1 [CGP13501] | effect on their own at GABAB receptors (GABABR1R2): no effect on their own; effect on potency and maximal efficacy of GABA (GABABR1R2): increase both the potency and maximal efficacy of GABA |
| −0.6 | 35 | 1.3 | CC(=O)c1c(C)nc2sc3cnccc3c2c1-c1ccccc1 [Example 23, 1-(2-Methyl-4-phenyl-9-thia-1,7-diaza-fluoren-3-yl)-ethanone] | – |
| −1 | 58 | 0.86 | CC(=O)c1c(C)nc2sc3c(c2c1-c1ccco1)CCC3 [Example 18, 1-(4-Furan-2-yl-2-methyl-6,7-dihydro-5H-cyclopenta[4,5]thieno[2,3-b]pyridin-3-yl)-ethanone] | – |
| – | – | – | NCC(CC(=O)O)c1ccc(Cl)cc1 (stereo not drawn) [Baclofen, β-chlorophenyl GABA] | reversal of reduction in prepulse inhibition (PPI) induced by dizocilpine [5]: able to reverse the reduction in prepulse inhibition; side effects (spontaneous locomotor activity, rotarod, body temperature, traction test) ([2]; 2.5-15 mg/kg): showed these side effects; treatment of PTSD [6]: effective and well-tolerated treatment; number of panic attacks and symptoms of anxiety [7]: significantly effective in reducing the number of panic attacks and symptoms of anxiety |
| – | – | – | CC(C)(CO)Cc1cc(C(C)(C)C)c(O)c(C(C)(C)C)c1 [CGP7930, 2,6-di-tert-butyl-4-(3-hydroxy-2,2-dimethyl-propyl)-phenol] | efficacy for treatment of GERD [8]: found to be effective; effect on their own at GABAB receptors (GABABR1R2): no effect on their own; effect on potency and maximal efficacy of GABA (GABABR1R2): increase both the potency and maximal efficacy of GABA; cocaine self-administration [4]: effective at deceasing cocaine self-administration |
| −0.9 | 69 | 2.4 | Cc1nc2sc(C)c(C)c2c(-c2ccccc2)c1C(=O)C(F)(F)F [Example 16, 2,2,2-Trifluoro-1-(2,3,6-trimethyl-4-phenyl-thieno[2,3-b]pyridin-5-yl)-ethanone] | – |
| −0.3 | 20 | 1.4 | COC(=O)N1CCc2c(sc3nc(C)c(C(C)=O)c(-c4ccccc4)c23)C1 [Example 38, 3-Acetyl-2-methyl-4-phenyl-5,8-dihydro-6H-9-thia-1,7-diaza-fluorene-7-carboxylic acid methyl ester] | – |
| −0.9 | 59 | 1.3 | Cc1nc2sc3c(c2c(-c2cccs2)c1C(=O)C(F)(F)F)CCC3 [Example 2, 2,2,2-Trifluoro-1-(2-methyl-4-thiophen-2-yl-6,7-dihydro-5H-cyclopenta[4,5]thieno[2,3-b]pyridin-3-yl)-ethanone] | – |
| −1.1 | 66 | 1.9 | Cc1nc2sc(Cl)cc2c(-c2ccccc2)c1C(=O)C(F)(F)F [Example 21, 1-(2-Chloro-6-methyl-4-phenyl-thieno[2,3-b]pyridin-5-yl)-2,2,2-trifluoro-ethanone] | – |
